Data set [1] is described as follows: Pharmacokinetic (PK) study in rat. The conditions noted are these: male, Sprague Dawley, in vivo, iv, 6 nmol/kg.
Description: The purpose of this Example is to investigate half-life in vivo in rat.
In vivo pharmacokinetic studies in rats were performed with the GLP-1 derivatives of a number of the Example compounds, as described in the following.
Male Sprague Dawley rats of same age with a body weight of approximately 400 g were obtained from Taconic (Denmark) and assigned to the treatments by simple randomisation on body weight, approximately 4 rats per group.
The GLP-1 derivatives (approximately 6 nmol/ml) were dissolved in 50 mM sodium phosphate, 145 mM sodium chloride, 0.05% tween 80, pH 7.4. Intravenous injections (1.0 ml/kg) of the compounds were given with a syringe in the tail vein of conscious rats. Blood was sampled from vena sublingualis for 5 days post dosing. Blood samples (200 μl) were collected in EDTA buffer (8 mM) and then centrifuged at 4° C. and 10000 G for 5 minutes. Plasma samples were kept at −20° C. until analyzed for plasma concentration of the respective GLP-1 compound.
The donor beads were coated with streptavidin, while acceptor beads were conjugated with a monoclonal antibody recognising a mid-/C-terminal epitope of the peptide. Another monoclonal antibody, specific for the N-terminus, was biotinylated. The three reactants were combined with the analyte and formed a two-sited immuno-complex. Illumination of the complex released singlet oxygen atoms from the donor beads, which were channeled into the acceptor beads and triggered chemiluminescence which was measured in an Envision plate reader. The amount of light was proportional to the concentration of the compound.
Plasma concentration-time profiles were analyzed using Phoenix WinNonLin ver. 6.2, Pharsight Inc., Mountain View, Calif., USA), and the half-life (T1/2) calculated using individual plasma concentration-time profiles from each animal.
Data set [2] in a line: Pharmacokinetic (PK) study in minipig. As to conditions: male, Göttingen, in vivo, iv.
The target of data set [3] is T1, human GLP-1 receptor (Homo sapiens, UniProt P43220).
T1 construct: expressed in transfected cells; host or cells: BHK cells, clone FCW467-12A/KZ10-1 (parent line BHKTS13), further transfected with CRE luciferase
T1 sequence (P43220 24-463): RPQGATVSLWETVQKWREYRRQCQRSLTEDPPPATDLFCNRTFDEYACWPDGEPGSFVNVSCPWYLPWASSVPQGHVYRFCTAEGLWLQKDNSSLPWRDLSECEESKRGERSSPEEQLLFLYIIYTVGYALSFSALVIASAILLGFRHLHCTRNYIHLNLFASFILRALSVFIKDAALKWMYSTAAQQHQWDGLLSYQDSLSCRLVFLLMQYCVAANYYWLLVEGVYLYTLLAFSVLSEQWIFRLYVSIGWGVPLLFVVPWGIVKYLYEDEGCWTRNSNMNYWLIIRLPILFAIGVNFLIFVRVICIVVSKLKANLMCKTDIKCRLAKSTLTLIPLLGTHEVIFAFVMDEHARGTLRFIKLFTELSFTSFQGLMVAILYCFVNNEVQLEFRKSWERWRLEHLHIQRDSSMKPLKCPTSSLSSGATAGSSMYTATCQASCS
Description: In vitro potency (AlphaScreen cAMP, membranes). The format is biochemical. The procedure: The purpose of this example is to test the activity, or potency, of the GLP-1 derivatives in vitro.
Purified plasma membranes from a stable transfected cell line, BHK467-12A (tk-ts13), expressing the human GLP-1 receptor were stimulated with the GLP-1 analogue or derivative in question, and the potency of cAMP production was measured using the AlphaScreen™ cAMP Assay Kit from Perkin Elmer Life Sciences. The basic principle of the AlphaScreen Assay is a competition between endogenous cAMP and exogenously added biotin-cAMP. The capture of cAMP is achieved by using a specific antibody conjugated to acceptor beads.
A stable transfected cell line and a high expressing clone were selected for screening. The cells were grown at 5% CO2 in DMEM, 5% FCS, 1% Pen/Strep (Penicillin/Streptomycin) and 0.5 mg/ml of the selection marker G418.
Cells at approximately 80% confluence were washed 2× with PBS and harvested with Versene (aqueous solution of the tetrasodium salt of ethylenediaminetetraacetic acid), centrifuged 5 min at 1000 rpm and the supernatant removed. The additional steps were all performed on ice. The cell pellet was homogenised by the Ultrathurax for 20-30 s in 10 ml of Buffer 1 (20 mM Na-HEPES, 10 mM EDTA, pH=7.4), centrifuged 15 min at 20,000 rpm and the pellet resuspended in 10 ml of Buffer 2 (20 mM Na-HEPES, 0.1 mM EDTA, pH=7.4). The suspension was homogenised for 20-30 s and centrifuged 15 min at 20,000 rpm. Suspension in Buffer 2, homogenisation and centrifugation was repeated once and the membranes were resuspended in Buffer 2. The protein concentration was determined and the membranes stored at −80° C. until use.
The assay was performed in flat-bottom 96-well plates (Costar cat. no:3693). The final volume per well was 50 μl.
AlphaScreen cAMP Assay Kit from Perkin Elmer Life Sciences (cat. No: 6760625M); containing Anti-cAMP Acceptor beads (10 U/μl), Streptavidin Donor beads (10 U/μl) and Biotinylated-cAMP (133 U/μl).
AlphaScreen Buffer, pH=7.4: 50 mM TRIS-HCl (Sigma, cat.no: T3253); 5 mM HEPES (Sigma, cat.no: H3375); 10 mM MgCl2, 6H2O (Merck, cat.no: 5833); 150 mM NaCl (Sigma, cat.no: S9625); 0.01% Tween (Merck, cat.no: 822184). The following was added to the AlphaScreen Buffer prior to use (final concentrations indicated): BSA (Sigma, cat. no. A7906): 0.1%; IBMX (Sigma, cat. no. 15879): 0.5 mM; ATP (Sigma, cat. no. A7699): 1 mM; GTP (Sigma, cat. no. G8877): 1 uM.
cAMP standard (dilution factor in assay=5): cAMP Solution: 5 μL of a 5 mM cAMP-stock+495 μL AlphaScreen Buffer.
Membranes were prepared from hGLP-1/BHK 467-12A cells with a concentration of 6 μg/well corresponding to 0.6 mg/ml (the amount of membranes used pr. well may vary)
“No membranes”: Acceptor Beads (15 μg/ml final) in AlphaScreen buffer
“6 μg/well membranes”: membranes+Acceptor Beads (15 μg/ml final) in AlphaScreen buffer
An aliquot (10 μl) of “No membranes” was added to the cAMP standard (per well in duplicate wells) and the positive and negative controls
An aliquot (10 μl) of “6 μg/well membranes” was added to GLP-1 and analogues (per well in duplicate or triplicate wells)
Pos. Control: 10 μl “no membranes”+10 μl AlphaScreen Buffer
Neg. Control: 10 μl “no membranes”+10 μl cAMP Stock Solution (50 μM)
As the beads are sensitive to direct light, any handling was in the dark (as dark as possible), or in green light. All dilutions were made on ice.
1. Make the AlphaScreen Buffer.
2. Dissolve and dilute the GLP-1/Analogues/cAMP standard in AlphaScreen Buffer.
3. Make the Donor Beads Solution by mixing streptavidin donor beads (2 units/well) and biotinylated cAMP (1.2 units/well) and incubate 20-30 min in the dark at room temperature
4. Add the cAMP/GLP-1/Analogues to the plate: 10 μl per well.
5. Prepare membrane/Acceptor Beads solution and add this to the plates: 10 μl per well.
6. Add the Donor Beads: 30 μl per well.
7. Wrap the plate in aluminum foil and incubate on the shaker for 3 hours (very slowly) at RT.
A general note: In Alpha technology, singlet oxygen from a donor bead excites a nearby acceptor bead.

Data set [4] deals with Landrace Yorkshire Duroc (LYD) pigs. Description: Pharmacodynamic (PD) study in pigs, food intake. The format is in vivo, pig. The conditions noted are these: single s.c. dose 3.0 nmol/kg. The procedure:
The purpose of this experiment was to investigate the effect of a couple of Example compounds on food intake in pigs. This was done in a pharmacodynamic (PD) study as described below, in which food intake was measured from 1 to 4 days after administration of a single dose of the GLP-1 derivative, as compared to a vehicle-treated control group.
Female Landrace Yorkshire Duroc (LYD) pigs, approximately 3 months of age, weighing approximately 30-35 kg were used (n=3-4 per group). The animals were housed in a group for approximately 1 week during acclimatisation to the animal facilities. During the experimental period the animals were placed in individual pens at least 2 days before dosing and during the entire experiment for measurement of individual food intake. The animals were fed ad libitum with pig fodder (Svinefoder Danish Top) at all times both during the acclimatisation and the experimental period. Food intake was monitored on line by logging the weight of fodder every 15 minutes. The system used was Mpigwin (Ellegaard Systems, Faaborg, Denmark).
The phosphate buffer serves as vehicle. Animals are dosed with a single subcutaneous dose of the GLP-1 derivative or vehicle (dose volume 0.025 ml/kg) on the morning of day 1, and food intake is measured for 1 day after dosing. On the last day of each study, 1-4 days after dosing, a blood sample for measurement of plasma exposure of the GLP-1 derivative is taken from the heart in anaesthetised animals. The animals are thereafter euthanised with an intra-cardial overdose of pentobarbitone.
Food intake is calculated as mean±SEM food intake in 24 h intervals (0-24 h, 24-48 h, and 48-72 h). In Table 6 below the food intake is indicated as percentage of the food intake of the vehicle group in the same time interval (dosage 3.0 nmol/kg).
Statistical comparisons of the food intake in the 24 h intervals in the vehicle vs. GLP-1 derivative group are done using two-way-ANOVA repeated measures, followed by Bonferroni post-test.

Numbered stars: 1 amine (or outer) side, 2 acyl side, 3 side chain; on linkers, the order of the positions; unused ones are H or OH. Square brackets hold non-standard residues; d marks the D form. Side chains are listed from the residue outwards. Peptide text beside a SMILES is read from it. * marks the point of attachment. Decanoyl(10-(4-HOOC-PhO)) = O=C(O)c1ccc(OCCCCCCCCCC(=O)*)cc1; γGlu = O=C(O)[C@H](CCC(=O)[*:2])N[*:1]; εLys = N[C@@H](CCCCN[*:1])C(=O)[*:2]; AEEA = NCCOCCOCC(=O)O; Aib = CC(C)(N)C(=O)O

The source of these data is patent US10604554B2, “Double-acylated GLP-1 derivatives” (Novo Nordisk A/S, priority 2012, dated 2020).

Broadly, the half-life is the time in which the quantity being followed falls by half. Higher therefore signals slow decline. What is called EC50 is the concentration at which the effect is half-maximal. A lower EC50 goes with greater potency. In the case of `CC[C@H](C)[C@H](NC(=O)[C@H](Cc1ccccc1)NC(=O)[C@H](CCC(=O)O)NC(=O)[C@H](CCCCNC(=O)[C@@H](N)CCCCNC(=O)[C@@H](N)CCCCNC(=O)CC[C@H](NC(=O)CCCCCCCCCCCOc1ccc(C(=O)O)cc1)C(=O)O)NC(=O)[C@H](C)NC(=O)[C@H](C)NC(=O)[C@H](CCC(N)=O)NC(=O)CNC(=O)[C@H](CCC(=O)O)NC(=O)[C@H](CC(C)C)NC(=O)[C@H](Cc1ccc(O)cc1)NC(=O)[C@H](CO)NC(=O)[C@H](CO)NC(=O)[C@@H](NC(=O)[C@H](CC(=O)O)NC(=O)[C@H](CO)NC(=O)[C@@H](NC(=O)[C@H](Cc1ccccc1)NC(=O)[C@@H](NC(=O)CNC(=O)[C@H](CCC(=O)O)NC(=O)C(C)(C)NC(=O)[C@@H](N)Cc1c[nH]cn1)[C@@H](C)O)[C@@H](C)O)C(C)C)C(=O)N[C@@H](C)C(=O)N[C@@H](Cc1c[nH]c2ccccc12)C(=O)N[C@@H](CC(C)C)C(=O)N[C@H](C(=O)N[C@@H](CCCNC(=N)N)C(=O)NCC(=O)N[C@@H](CCCNC(=N)N)C(=O)N[C@@H](CCCCNC(=O)[C@@H](N)CCCCNC(=O)[C@@H](N)CCCCNC(=O)CC[C@H](NC(=O)CCCCCCCCCCCOc1ccc(C(=O)O)cc1)C(=O)O)C(=O)O)C(C)C` [Example 7, N^ε26-[(2S)-2-amino-6-[[(2S)-2-amino-6-[[(4S)-4-carboxy-4-[12-(4-carboxyphenoxy)dodecanoylamino]butanoyl]amino]hexanoyl]amino]hexanoyl], N^ε37-[(2S)-2-amino-6-[[(2S)-2-amino-6-[[(4S)-4-carboxy-4-[12-(4-carboxyphenoxy)dodecanoylamino]butanoyl]amino]hexanoyl]amino]hexanoyl]-[Aib^8,Arg^34,Lys^37]-GLP-1-(7-37)-peptide], the half-life in data set [1] was 17 h; in data set [2], 69 h. The compound also gave an EC50 in data set [3] of 0.136 nM. Further, the “PD in pig, food intake (% of vehicle) for hours 0-24” value in data set [4] (0-24 h) is listed as 14 % of vehicle. In addition, in data set [4] (24-48 h), the “PD in pig, food intake (% of vehicle) for hours 24-48” value is recorded as 18 % of vehicle. Besides, the “reduction in food intake (in words)” value in data set [4] (versus vehicle) is “very nice reduction in food intake”.
With `CC[C@H](C)[C@H](NC(=O)[C@H](Cc1ccccc1)NC(=O)[C@H](CCC(=O)O)NC(=O)[C@H](CCCCNC(=O)[C@@H](N)CCCCNC(=O)COCCOCCNC(=O)COCCOCCNC(=O)CC[C@H](NC(=O)CCCCCCCCCOc1ccc(C(=O)O)cc1)C(=O)O)NC(=O)[C@H](C)NC(=O)[C@H](C)NC(=O)[C@H](CCC(N)=O)NC(=O)[C@H](CCC(=O)O)NC(=O)[C@H](CCC(=O)O)NC(=O)[C@H](CC(C)C)NC(=O)[C@H](Cc1ccc(O)cc1)NC(=O)[C@H](CO)NC(=O)[C@H](CO)NC(=O)[C@@H](NC(=O)[C@H](CC(=O)O)NC(=O)[C@H](CO)NC(=O)[C@@H](NC(=O)[C@H](Cc1ccccc1)NC(=O)[C@@H](NC(=O)CNC(=O)[C@H](CCC(=O)O)NC(=O)C(C)(C)NC(=O)[C@@H](N)Cc1c[nH]cn1)[C@@H](C)O)[C@@H](C)O)C(C)C)C(=O)N[C@@H](C)C(=O)N[C@@H](Cc1c[nH]c2ccccc12)C(=O)N[C@@H](CC(C)C)C(=O)N[C@H](C(=O)N[C@@H](CCC(N)=O)C(=O)NCC(=O)N[C@@H](CCCNC(=N)N)C(=O)N[C@@H](CCCCNC(=O)[C@@H](N)CCCCNC(=O)COCCOCCNC(=O)COCCOCCNC(=O)CC[C@H](NC(=O)CCCCCCCCCOc1ccc(C(=O)O)cc1)C(=O)O)C(=O)O)C(C)C` [Example 18] (H-H[Aib]EGTFTSDVSSYLEEQAAK([εLys-AEEA-AEEA-γGlu-Decanoyl(10-(4-HOOC-PhO))])EFIAWLVQGRK([εLys-AEEA-AEEA-γGlu-Decanoyl(10-(4-HOOC-PhO))])-OH; N-terminus and C-terminus assumed), the half-life is 20 h in data set [1] and 47 h in data set [2]. Further, the response in data set [3] was half-maximal at 0.075 nM (EC50).
On to `CC[C@H](C)[C@H](NC(=O)[C@H](Cc1ccccc1)NC(=O)[C@H](CCC(=O)O)NC(=O)[C@H](CCCCNC(=O)[C@@H](N)CCCCNC(=O)[C@@H](N)CCCCNC(=O)CC[C@H](NC(=O)CCCCCCCCCCOc1ccc(C(=O)O)cc1)C(=O)O)NC(=O)[C@H](C)NC(=O)[C@H](C)NC(=O)[C@H](CCC(N)=O)NC(=O)CNC(=O)[C@H](CCC(=O)O)NC(=O)[C@H](CC(C)C)NC(=O)[C@H](Cc1ccc(O)cc1)NC(=O)[C@H](CO)NC(=O)[C@H](CO)NC(=O)[C@@H](NC(=O)[C@H](CC(=O)O)NC(=O)[C@H](CO)NC(=O)[C@@H](NC(=O)[C@H](Cc1ccccc1)NC(=O)[C@@H](NC(=O)CNC(=O)[C@H](CCC(=O)O)NC(=O)C(C)(C)NC(=O)[C@@H](N)Cc1c[nH]cn1)[C@@H](C)O)[C@@H](C)O)C(C)C)C(=O)N[C@@H](C)C(=O)N[C@@H](Cc1c[nH]c2ccccc12)C(=O)N[C@@H](CC(C)C)C(=O)N[C@H](C(=O)N[C@@H](CCCNC(=N)N)C(=O)NCC(=O)N[C@@H](CCCNC(=N)N)C(=O)N[C@@H](CCCCNC(=O)[C@@H](N)CCCCNC(=O)[C@@H](N)CCCCNC(=O)CC[C@H](NC(=O)CCCCCCCCCCOc1ccc(C(=O)O)cc1)C(=O)O)C(=O)O)C(C)C` [Example 20, N^ε26-[(2S)-2-amino-6-[[(2S)-2-amino-6-[[(4S)-4-carboxy-4-[11-(4-carboxyphenoxy)undecanoylamino]butanoyl]amino]hexanoyl]amino]hexanoyl], N^ε37-[(2S)-2-amino-6-[[(2S)-2-amino-6-[[(4S)-4-carboxy-4-[11-(4-carboxyphenoxy)undecanoylamino]butanoyl]amino]hexanoyl]amino]hexanoyl]-[Aib^8,Arg^34,Lys^37]-GLP-1-(7-37)-peptide], for which the half-life in data set [1] was 14 h; in data set [2], 59 h. In addition, in data set [3], it took 0.071 nM to reach a half-maximal effect (EC50).
